Results as given in a melting point compilation (Tetko et al.; mined from patent text by program, amines drawn as free bases though some values may be those of a salt).

First: CC1(C)OC(=O)COC1=O
Second: CCc1c(Br)sc2[nH]c(=O)c(=O)[nH]c12
The melting point of the first is lower: 82 to 83 °C for the first, 295 to 297 °C for the second.

Compared with C[C@H](Cn1ccnc1)NC(=O)c1c[nH]c2ncc(-c3nn(C)c4cc(Cl)ccc34)nc12, Cc1cc(-c2cc(C(=O)O)c(=O)n(CC(C)C)n2)ccc1F is lower in melting point: 276 to 279 °C for the first, 129 to 132 °C for the second.

First: FC(F)(F)c1ccc(-c2ccc3ccn(Cc4ccccc4)c3c2)cc1
Second: O=C(O)C1(c2cccc(C(F)(F)F)c2)CCN(Cc2ccccc2)CC1
The melting point of the first is lower: 83 to 85 °C for the first, 243 °C for the second.

First: COc1ccc(OC)c(C(=O)c2cc3ccc(OC)cc3o2)c1
Second: COC(=O)c1cc(O)c2cc(OC)ccc2c1
The melting point of the first is lower: 129 to 131 °C for the first, 193 to 195 °C for the second.

Compared with C[C@H](O)[C@@H](COc1ccc(Cl)c(Cl)c1)n1cnc(C(N)=O)c1, Cc1ccc(C(=O)COc2ccc(F)cc2)cc1 is lower in melting point: 115 to 121 °C for the first, 95 to 96 °C for the second.

First: O=S(=O)(Nc1cccc(CCOCc2ccc(-c3ccc(OC(F)(F)F)cc3)cc2F)c1)C(F)(F)F
Second: Cc1cc(Cc2cc(C(F)(F)F)cc(C(F)(F)F)c2)ccc1NC(=O)c1cccc(Cl)c1C(=O)N[C@@H](C)CS(C)(=O)=O
The melting point of the first is lower: 114 to 115 °C for the first, 155 to 158 °C for the second.

First: CCC1(CO)COC(C(C)(C)Oc2ccc(Cl)cc2)=N1 (configuration not stated)
Second: Cc1nn(Cc2ccc(Cl)cc2)c(C)c1CC(=O)O
The melting point of the first is lower: 94 to 95 °C for the first, 173 to 174 °C for the second.

Compared with COC(=O)c1cc(OP(=O)(OC)OC)c(C(=O)OC)s1, COC(=O)CCC(=O)c1cc(OC)ccc1OCC(O)CNC(C)(C)C (configuration not stated) is higher in melting point: 60 °C for the first, 70 to 72 °C for the second.

First: O=C(Nc1c(C(O)(C(F)(F)F)C(F)(F)F)ccc2ccccc12)C1CC1
Second: O=C(CBr)N[C@H](Cc1ccc(C(F)(F)F)cc1)[C@@H](O)c1ccc(F)cc1 (racemic)
The melting point of the first is higher: 163 to 165 °C for the first, 151 to 152 °C for the second.

First: CC(=O)CC(=O)NC12CC3CC(CC(C3)C1)C2
Second: O=C(O)[C@@H]1CC2(CN1C(=O)OCc1ccccc1)OCCO2
The melting point of the first is lower: 80 °C for the first, 179 to 180 °C for the second.

First: CCOc1cc2nc(CCl)nc(Cl)c2cc1OCC
Second: CCOc1cc2c(cc1OC)C(c1cnc(OC)nc1)=N[C@@H]1CC[C@@H](O)C[C@H]21
The melting point of the first is lower: 109 to 112 °C for the first, 124 °C for the second.

First: COc1cc2c(c(OC)c1OC)C(C#N)N(C(=O)c1ccccc1)C=C2 (configuration not stated)
Second: CC=NN(C(=O)c1ccccc1)c1ccc(OC)c(F)c1
The melting point of the first is higher: 158 to 160 °C for the first, 110 to 112 °C for the second.

Compared with CSCCN(C)C(=O)N(C)c1cnc(-c2cncc(F)c2)s1, CCN(C)C(=O)N1N=C2c3cc(F)ccc3OC[C@@H]2[C@@H]1c1ccccc1 (racemic) is higher in melting point: 68 to 69 °C for the first, 133 to 137 °C for the second.

Clc1ccc2c(C3CCN(CCCOc4cccc5[nH]ccc45)CC3)c[nH]c2c1Cl and Clc1cccc(N2CCN(CCCOc3ccc4cn[nH]c4c3)CC2)c1Cl cannot be ordered by melting point: 160 to 165 °C for the first, 159 to 161 °C for the second.

Compared with COc1ccc(C2N3CCSC3=NC2(O)c2ccc(F)cc2)cc1 (configuration not stated), CC1(c2ccc(F)cc2)OC(C=Cc2ccsc2)=CC1=O (configuration not stated) is lower in melting point: 150 to 151 °C for the first, 97 to 98 °C for the second.

First: CCCOc1ccc(CCCOc2ccc3c(c2)C=C(C(=O)Nc2ccc(CN(C)C4CCOCC4)cc2)CCS3(=O)=O)cc1
Second: Cc1oc(-c2ccc3ccccc3c2)nc1COc1ccc(CCCCC2OC(=O)NC2=O)cc1 (configuration not stated)
The melting point of the first is higher: 178 to 181 °C for the first, 163 to 164 °C for the second.

Compared with CCNC(=O)C(=CNc1ccc(I)cc1)C(=O)c1ccccc1Cl, CC(C)(CNC(=O)[C@H](O)[C@H](O)COC(=O)Cc1ccccc1Nc1c(Cl)cccc1Cl)SN=O is lower in melting point: 160 to 162 °C for the first, 57 to 59 °C for the second.

First: Cc1nc(N2CCN(Cc3ccncc3)C2=O)sc1C(=O)NCc1cccnc1
Second: COc1ccc(-c2c(Cl)c(CN3CCCC3=O)nc3sc4c(c23)CCN(Cc2ccccc2)C4)cc1OC
The melting point of the first is higher: 233 to 235 °C for the first, 139 to 140 °C for the second.

Compared with CCSc1nc2nsc(N)c2s1, CCCCCCSc1nn2c(=O)cc(-c3ccccc3)nc2s1 is lower in melting point: 131 to 134 °C for the first, 90 to 91 °C for the second.

Compared with COc1ccc(/C=C(\C#N)c2c(F)c(F)c(F)c(F)c2F)cc1OC1CCCC1, Cc1nc2c(-c3cccc(N4CCC(N5CCCC5)CC4)c3)cnn2c(N)c1-c1ccc(F)cc1 is higher in melting point: 94.5 to 96 °C for the first, 244 to 249 °C for the second.

CC#CCNC(=C[N+](=O)[O-])NCCSCc1[nH]cnc1C and CNC(=S)NCCSCc1[nH]cnc1C cannot be ordered by melting point: 148 to 151 °C for the first, 150 to 152 °C for the second.

O=c1nc(-c2ccc3c(c2)OCCO3)c2cc3c(cc2[nH]1)OCO3 and O=C1Nc2ccccc2C12COc1cc3c(cc12)OCCO3 (configuration not stated) cannot be ordered by melting point: over 300 °C for the first, over 250 °C for the second.

First: COc1ccc2c(c1OC)CCOC2CCl (configuration not stated)
Second: COc1ccc(/C=C/c2c(Cl)cncc2Cl)c2c1OC(C)(C)C2
The melting point of the first is lower: 63 to 65 °C for the first, 114 to 118 °C for the second.

First: N#CSc1cc(-c2ccccc2)c(O)c(-c2ccccc2)c1
Second: Cn1cc(-c2ccccc2)c(=O)c(-c2cccc(O)c2)c1
The melting point of the first is lower: 104 to 106 °C for the first, 223 to 225 °C for the second.

First: COc1ccc(-c2ccc(-c3ccccc3)nc2-c2ccc(OCCN3CCCC3)cc2)cc1
Second: O=P(Oc1ccc(-c2ccccc2)cc1)(Oc1ccc(-c2ccccc2)cc1)Oc1ccc(-c2ccccc2)cc1
The melting point of the first is lower: 100 to 103 °C for the first, 137 °C for the second.

Compared with COP(=S)(OC)SCc1nc2sccn2c(=O)c1Cl, COC(=O)CSCC(=O)c1ccc2[nH]c(=O)[nH]c2c1 is higher in melting point: 125 to 130 °C for the first, 177 to 178 °C for the second.

Compared with CC(C)c1cccc(C(C)C)c1N=c1cccc(-c2cccc3ccccc23)[nH]1, COc1ccc2c(CCN3CC=C(c4c[nH]c5ccccc45)CC3)coc2c1 is lower in melting point: 142 to 144 °C for the first, 54 °C for the second.

First: CC(C)=C1Cc2ccc3nc(C)oc3c2C1=O
Second: Cc1nnc([C@H](Nc2ccc(C#N)c(Cl)c2C)[C@H](C)O)o1
The melting point of the first is lower: 156 to 159 °C for the first, 181 to 183 °C for the second.

Compared with COC(=O)c1nc2c(c(-c3ccccc3)nn2-c2ccccc2)c(N)c1C(=O)OC, COC(=O)c1scc(-c2ccccc2)c1-c1ccc(SC)c(F)c1 is lower in melting point: 277 to 279 °C for the first, 141 °C for the second.

First: O=S(=O)(Nc1cc(Cl)c(Cl)cc1Cl)C(F)(F)F
Second: CC(C)(C)NS(=O)(=O)c1ccc(C(=O)c2ccc(Cl)cc2)cc1F
The melting point of the first is lower: 104 to 106 °C for the first, 152 °C for the second.

First: Cn1ccnc1Sc1ccc(Cl)cc1N
Second: CN(C)c1ncc2cc(-c3c(Cl)cccc3Cl)c(=O)n(C)c2n1
The melting point of the first is lower: 127 to 129 °C for the first, 256 to 258 °C for the second.

Compared with O=C(O)CCCCCCCc1cncc2ccccc12, CCCCCCc1ncc(C(=O)O)s1 is lower in melting point: 99 to 100 °C for the first, 73 °C for the second.

First: CC(=O)N1CCN(CCOc2ccc(C3CCN(C4=Nn5c(nnc5C(F)(F)F)CC4)CC3)cc2)CC1
Second: Cc1[nH]c2ccc(F)cc2c1C(=O)NC1CCN(CCc2ccccc2)CC1
The melting point of the first is lower: 127 °C for the first, 159 to 162 °C for the second.

First: Cc1cccc(C)c1NC(C)(C)C(=O)O
Second: CCNc1cc(O)c(C(C)=O)cc1C(C)=O
The melting point of the first is higher: 148 °C for the first, 103 to 104 °C for the second.

Compared with O=C(Nc1cccnc1)c1ccc([N+](=O)[O-])cc1, O=C(Nc1ccc(S(=O)(=O)N2CCOCC2)cc1)c1cc(Cl)ccc1[N+](=O)[O-] is higher in melting point: 191 to 194 °C for the first, 243 to 245 °C for the second.

Compared with CSc1nc(=O)c2cccc3c2n1-c1cc(C(F)(F)F)ccc1S3, CC(C)c1nn(-c2ccc(C(F)(F)F)cn2)cc1CCCOc1nn(C)cc1CC(=O)O is lower in melting point: 229 to 231 °C for the first, 122 to 123 °C for the second.

Compared with CC(=O)N(CC(=O)O)c1csc(NC(=O)OCC(Cl)(Cl)Cl)n1, CCCCOc1cc(/C=C(\OCC)C(=O)O)ccc1OCCc1ccc(N(C)C(C)=O)cc1 is lower in melting point: 158 °C for the first, 121 °C for the second.

Compared with COC(=O)c1ccccc1C1=NC(C)(C(C)C)C(=O)N1 (configuration not stated), CC(C)C(c1cncnc1C#N)N(C)C(=O)Cc1ccccc1 (configuration not stated) is lower in melting point: 113 to 114 °C for the first, 80 to 81 °C for the second.

Compared with Clc1ccc(C=Cc2ccc(CBr)cc2)cc1, COCc1ccc(-c2coc3ccc(-c4nnc(C)o4)cc23)cc1 is higher in melting point: 130 to 132 °C for the first, 158 to 159 °C for the second.

Compared with CC(C)(O)C1CC(c2ccc(-c3ccc(N4C[C@H](Cn5ccnn5)OC4=O)cc3F)cn2)=NO1 (some centres not stated), Cc1ccc2c(c1)c(-c1ccc(F)cc1)c(C)n2C1CCN(C)CC1 is lower in melting point: 197 °C for the first, 110 to 112 °C for the second.

Compared with O=C1CCNc2c([N+](=O)[O-])cc(Cl)c(Cl)c21, O=C1c2cccc([N+](=O)[O-])c2C(=O)N1CCCCN1C(=O)c2cccc([N+](=O)[O-])c2C1=O is higher in melting point: 175 to 176 °C for the first, 245 °C for the second.

Compared with O=[N+]([O-])c1c(Br)nn(CCO)c1Br, OC[C@H](O)CCOc1nc(N2CCNCC2)nc2ccccc12 is higher in melting point: 103 to 105 °C for the first, 151 to 156 °C for the second.

Compared with COC(=O)N1CCC(Nc2ncc3ncnc(Nc4ccc(F)c(Cl)c4)c3n2)CC1, CC1CCCN(c2nc(-n3cncn3)nc(Cl)c2-c2c(F)cc(F)cc2F)O1 (configuration not stated) is lower in melting point: 213 to 215 °C for the first, 141 to 143 °C for the second.

First: CCCCCCCCCCCCCCCCCCN=Cc1ccc(O)cc1
Second: CCCCCCCCCCCCCCCCCCOc1cc(N)cc(OC(C)=O)c1
The melting point of the first is higher: 101 °C for the first, 73 to 74 °C for the second.

First: CC1(O)CCN(C(=O)c2cc(-c3cnc4[nH]cc(C(=O)C5(C)CCCCC5)c4n3)cs2)CC1
Second: COc1ccc(-c2ccc3c(c2)C(C)(C)CCC3(C)C)cc1-c1ccc(C(=O)O)cc1
The melting point of the first is higher: 257 to 259 °C for the first, 148 to 152 °C for the second.

First: CCCCCCC/C=C/C(=O)NCCN1CCCC1
Second: CCCCCCCCCCNC(=O)c1cc(NCC(=O)OC)cc(C(=O)NCCCCCCCCCC)c1
The melting point of the first is lower: 56 to 58 °C for the first, 108 to 109 °C for the second.

First: CC(=O)C1CCC2C3CCC4C=CCCC4(C)C3CCC12C (configuration not stated)
Second: COc1ccc(S(=O)(=O)OCC(=O)CC(C)C2CCCCC2)cc1 (configuration not stated)
The melting point of the first is higher: 135 to 136 °C for the first, 52 to 53 °C for the second.

First: Cc1cc(C#N)cc(C)c1Oc1nc(Nc2ccc(C#N)cc2)nc(C)c1Br
Second: CCOC(=O)C1=CC(C)C2=c3c1cccc3=C1N=NC=C12 (configuration not stated)
The melting point of the first is higher: 260 to 262 °C for the first, 107 to 109 °C for the second.

First: NCC1CN(c2cc3c(cc2F)c(=O)c(C(=O)O)cn3C2CC2)C1
Second: Cn1ncnc1COc1nn2c(-c3ccccc3)nnc2cc1C12CCC(CC1)C2
The melting point of the first is lower: 205 to 211 °C for the first, 244 to 246 °C for the second.

First: CS(=O)(=O)Nc1ccc(CCN2CCc3ccc(NS(C)(=O)=O)cc3CC2)cc1
Second: C1=C2NCCN2C(c2ccccc2)c2ccccc2C1 (configuration not stated)
The melting point of the first is lower: 184 to 187 °C for the first, 200 to 201 °C for the second.

First: FC(F)(F)Oc1ccc2nc(C(F)(F)F)[nH]c2c1
Second: NCCCNc1ccc(NCCCN)c2c1C(=O)c1c(O)ccc(O)c1C2=O
The melting point of the first is higher: 158 to 160 °C for the first, 115 to 130 °C for the second.
